Values quoted from earlier work as cited in paper PMC13343212, “Hybrid Aminoferrocenes With Nitrate Esters for In Situ Peroxynitrite Generation: Complex Interplay Between Redox Chemistry, NO‐Donor Reactivity, and Aminoferrocene Activation Influences In Vitro Anticancer Activity” (Chembiochem, 2026).

Conditions: references for RP‐TLC calibration

Row | Compound | LogP of known references
1 | c1ccc2cc3ccccc3cc2c1 [anthracene] | 4.50
2 | c1cc2cccc3c4cccc5cccc(c(c1)c23)c54 [perylene] | 6.25
